{"source": "the supplement of paper PMC10307832", "assay_in_all_cases": "relative viability (nuclei count vs DMSO), 5 days (fraction); higher = more cells survive", "key": {"NCI-H1651": {"test_system": "NCI-H1651", "how_it_was_run": "(§1)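 One day after seeding in 1536-well plates, lung cancer cell lines were dosed by pin tool. Dosing was either single-drug or a fixed anchor-drug dose plus five library-drug doses (not always all listed) in √10 steps. After 5 days, nuclei were stained in one fix-and-stain step and counted on 4× images, and relative viability is the nuclei count of treated wells over that of vehicle wells, given as the median of duplicate plates.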"}, "PC-3 [JPC-3]": {"test_system": "PC-3 [JPC-3]", "how_it_was_run": "as §1"}, "LOU-NH91": {"test_system": "LOU-NH91", "how_it_was_run": "as §1"}, "SK-LU-1": {"test_system": "SK-LU-1", "how_it_was_run": "as §1"}, "NCI-H1944": {"test_system": "NCI-H1944", "how_it_was_run": "as §1"}, "NCI-H1437": {"test_system": "NCI-H1437", "how_it_was_run": "as §1"}, "NCI-H1734": {"test_system": "NCI-H1734", "how_it_was_run": "as §1"}, "NCI-H2170": {"test_system": "NCI-H2170", "how_it_was_run": "as §1"}, "201T": {"test_system": "201T", "how_it_was_run": "as §1"}, "NCI-H322M": {"test_system": "NCI-H322M", "how_it_was_run": "as §1"}, "NCI-H596": {"test_system": "NCI-H596", "how_it_was_run": "as §1"}, "EBC-1": {"test_system": "EBC-1", "how_it_was_run": "as §1"}, "LK-2": {"test_system": "LK-2", "how_it_was_run": "as §1"}, "NCI-H2228": {"test_system": "NCI-H2228", "how_it_was_run": "as §1"}, "PC-14": {"test_system": "PC-14", "how_it_was_run": "as §1"}, "HCC-78": {"test_system": "HCC-78", "how_it_was_run": "as §1"}, "IA-LM": {"test_system": "IA-LM", "how_it_was_run": "as §1"}, "NCI-H2087": {"test_system": "NCI-H2087", "how_it_was_run": "as §1"}, "HCC-366": {"test_system": "HCC-366", "how_it_was_run": "as §1"}, "ABC-1": {"test_system": "ABC-1", "how_it_was_run": "as §1"}, "NCI-H647": {"test_system": "NCI-H647", "how_it_was_run": "as §1"}, "NCI-H2023": {"test_system": "NCI-H2023", "how_it_was_run": "as §1"}, "NCI-H2085": {"test_system": "NCI-H2085", "how_it_was_run": "as §1"}}, "data": [{"compound": "Nc1cccc2c1CN(C1CCC(=O)NC1=O)C2=O", "note": "(stereo not given) [Lenalidomide] + COc1cc2c(Oc3ccc(NC(=O)C4(C(=O)Nc5ccc(F)cc5)CC4)cc3F)ccnc2cc1OCCCN1CCOCC1 [Foretinib] (partner 0.25 µM)", "values": [{"measurement": "relative viability", "setting": "NCI-H1651; first compound 0.253 µM", "value": 0.837}, {"measurement": "relative viability", "setting": "NCI-H1651; first compound 0.8 µM", "value": 0.963}, {"measurement": "relative viability", "setting": "NCI-H1651; first compound 2.53 µM", "value": 0.914}, {"measurement": "relative viability", "setting": "NCI-H1651; first compound 8 µM", "value": 0.804}, {"measurement": "relative viability", "setting": "PC-3 [JPC-3]; first compound 0.253 µM", "value": 1.06}, {"measurement": "relative viability", "setting": "PC-3 [JPC-3]; first compound 0.8 µM", "value": 0.974}, {"measurement": "relative viability", "setting": "PC-3 [JPC-3]; first compound 2.53 µM", "value": 1.17}, {"measurement": "relative viability", "setting": "PC-3 [JPC-3]; first compound 8 µM", "value": 1.08}, {"measurement": "relative viability", "setting": "LOU-NH91; first compound 0.253 µM", "value": 0.97}, {"measurement": "relative viability", "setting": "LOU-NH91; first compound 0.8 µM", "value": 0.923}, {"measurement": "relative viability", "setting": "LOU-NH91; first compound 2.53 µM", "value": 0.942}, {"measurement": "relative viability", "setting": "LOU-NH91; first compound 8 µM", "value": 0.898}, {"measurement": "relative viability", "setting": "SK-LU-1; first compound 0.253 µM", "value": 0.71}, {"measurement": "relative viability", "setting": "SK-LU-1; first compound 0.8 µM", "value": 0.727}, {"measurement": "relative viability", "setting": "SK-LU-1; first compound 2.53 µM", "value": 1.02}, {"measurement": "relative viability", "setting": "SK-LU-1; first compound 8 µM", "value": 0.802}, {"measurement": "relative viability", "setting": "NCI-H1944; first compound 0.253 µM", "value": 0.871}, {"measurement": "relative viability", "setting": "NCI-H1944; first compound 0.8 µM", "value": 0.905}, {"measurement": "relative viability", "setting": "NCI-H1944; first compound 2.53 µM", "value": 0.911}, {"measurement": "relative viability", "setting": "NCI-H1944; first compound 8 µM", "value": 0.848}, {"measurement": "relative viability", "setting": "NCI-H1437; first compound 0.253 µM", "value": 1.34}, {"measurement": "relative viability", "setting": "NCI-H1437; first compound 0.8 µM", "value": 1.25}, {"measurement": "relative viability", "setting": "NCI-H1437; first compound 2.53 µM", "value": 1.32}, {"measurement": "relative viability", "setting": "NCI-H1437; first compound 8 µM", "value": 1.46}, {"measurement": "relative viability", "setting": "NCI-H1734; first compound 0.253 µM", "value": 0.894}, {"measurement": "relative viability", "setting": "NCI-H1734; first compound 0.8 µM", "value": 0.776}, {"measurement": "relative viability", "setting": "NCI-H1734; first compound 2.53 µM", "value": 0.932}, {"measurement": "relative viability", "setting": "NCI-H1734; first compound 8 µM", "value": 0.809}, {"measurement": "relative viability", "setting": "NCI-H2170; first compound 0.253 µM", "value": 0.972}, {"measurement": "relative viability", "setting": "NCI-H2170; first compound 0.8 µM", "value": 1}, {"measurement": "relative viability", "setting": "NCI-H2170; first compound 2.53 µM", "value": 1.04}, {"measurement": "relative viability", "setting": "NCI-H2170; first compound 8 µM", "value": 1.02}, {"measurement": "relative viability", "setting": "201T; first compound 0.253 µM", "value": 1.08}, {"measurement": "relative viability", "setting": "201T; first compound 2.53 µM", "value": 1.23}, {"measurement": "relative viability", "setting": "201T; first compound 8 µM", "value": 1.13}, {"measurement": "relative viability", "setting": "NCI-H322M; first compound 0.253 µM", "value": 0.962}, {"measurement": "relative viability", "setting": "NCI-H322M; first compound 0.8 µM", "value": 1.05}, {"measurement": "relative viability", "setting": "NCI-H322M; first compound 2.53 µM", "value": 1.11}, {"measurement": "relative viability", "setting": "NCI-H322M; first compound 8 µM", "value": 0.902}, {"measurement": "relative viability", "setting": "NCI-H596; first compound 0.253 µM", "value": 0.799}, {"measurement": "relative viability", "setting": "NCI-H596; first compound 2.53 µM", "value": 0.908}, {"measurement": "relative viability", "setting": "NCI-H596; first compound 8 µM", "value": 0.789}, {"measurement": "relative viability", "setting": "EBC-1; first compound 0.253 µM", "value": 0.0951}, {"measurement": "relative viability", "setting": "EBC-1; first compound 0.8 µM", "value": 0.0871}, {"measurement": "relative viability", "setting": "EBC-1; first compound 2.53 µM", "value": 0.0994}, {"measurement": "relative viability", "setting": "EBC-1; first compound 8 µM", "value": 0.109}, {"measurement": "relative viability", "setting": "LK-2; first compound 0.253 µM", "value": 1.57}, {"measurement": "relative viability", "setting": "LK-2; first compound 0.8 µM", "value": 1.17}, {"measurement": "relative viability", "setting": "LK-2; first compound 2.53 µM", "value": 1.24}, {"measurement": "relative viability", "setting": "LK-2; first compound 8 µM", "value": 0.847}, {"measurement": "relative viability", "setting": "NCI-H2228; first compound 0.253 µM", "value": 0.943}, {"measurement": "relative viability", "setting": "NCI-H2228; first compound 0.8 µM", "value": 0.907}, {"measurement": "relative viability", "setting": "NCI-H2228; first compound 2.53 µM", "value": 1.04}, {"measurement": "relative viability", "setting": "NCI-H2228; first compound 8 µM", "value": 0.975}, {"measurement": "relative viability", "setting": "PC-14; first compound 0.253 µM", "value": 0.945}, {"measurement": "relative viability", "setting": "PC-14; first compound 0.8 µM", "value": 1.02}, {"measurement": "relative viability", "setting": "PC-14; first compound 2.53 µM", "value": 1.01}, {"measurement": "relative viability", "setting": "PC-14; first compound 8 µM", "value": 0.982}, {"measurement": "relative viability", "setting": "HCC-78; first compound 0.253 µM", "value": 0.673}, {"measurement": "relative viability", "setting": "HCC-78; first compound 0.8 µM", "value": 0.526}, {"measurement": "relative viability", "setting": "HCC-78; first compound 2.53 µM", "value": 0.516}, {"measurement": "relative viability", "setting": "HCC-78; first compound 8 µM", "value": 0.514}, {"measurement": "relative viability", "setting": "IA-LM; first compound 0.253 µM", "value": 0.952}, {"measurement": "relative viability", "setting": "IA-LM; first compound 0.8 µM", "value": 1.15}, {"measurement": "relative viability", "setting": "IA-LM; first compound 2.53 µM", "value": 1.28}, {"measurement": "relative viability", "setting": "IA-LM; first compound 8 µM", "value": 1.07}, {"measurement": "relative viability", "setting": "NCI-H2087; first compound 0.253 µM", "value": 0.801}, {"measurement": "relative viability", "setting": "NCI-H2087; first compound 0.8 µM", "value": 1.17}, {"measurement": "relative viability", "setting": "NCI-H2087; first compound 2.53 µM", "value": 1.17}, {"measurement": "relative viability", "setting": "NCI-H2087; first compound 8 µM", "value": 1.28}, {"measurement": "relative viability", "setting": "HCC-366; first compound 0.253 µM", "value": 0.916}, {"measurement": "relative viability", "setting": "HCC-366; first compound 0.8 µM", "value": 1.04}, {"measurement": "relative viability", "setting": "HCC-366; first compound 2.53 µM", "value": 0.915}, {"measurement": "relative viability", "setting": "HCC-366; first compound 8 µM", "value": 0.929}, {"measurement": "relative viability", "setting": "ABC-1; first compound 0.253 µM", "value": 0.977}, {"measurement": "relative viability", "setting": "ABC-1; first compound 0.8 µM", "value": 1.19}, {"measurement": "relative viability", "setting": "ABC-1; first compound 2.53 µM", "value": 1.14}, {"measurement": "relative viability", "setting": "ABC-1; first compound 8 µM", "value": 0.811}, {"measurement": "relative viability", "setting": "NCI-H647; first compound 0.253 µM", "value": 0.856}, {"measurement": "relative viability", "setting": "NCI-H647; first compound 0.8 µM", "value": 1.12}, {"measurement": "relative viability", "setting": "NCI-H647; first compound 2.53 µM", "value": 1.21}, {"measurement": "relative viability", "setting": "NCI-H647; first compound 8 µM", "value": 1.11}, {"measurement": "relative viability", "setting": "NCI-H2023; first compound 0.253 µM", "value": 0.89}, {"measurement": "relative viability", "setting": "NCI-H2023; first compound 0.8 µM", "value": 1.19}, {"measurement": "relative viability", "setting": "NCI-H2023; first compound 2.53 µM", "value": 0.753}, {"measurement": "relative viability", "setting": "NCI-H2023; first compound 8 µM", "value": 0.931}, {"measurement": "relative viability", "setting": "NCI-H2085; first compound 0.253 µM", "value": 1.04}, {"measurement": "relative viability", "setting": "NCI-H2085; first compound 0.8 µM", "value": 1.11}, {"measurement": "relative viability", "setting": "NCI-H2085; first compound 2.53 µM", "value": 0.929}, {"measurement": "relative viability", "setting": "NCI-H2085; first compound 8 µM", "value": 1.07}]}]}
